In ChEMBL document CHEMBL1126432, “Synthesis and biological activity of carbocyclic derivatives of the potent antiviral agent 9-[2-(phosphonomethoxy)ethyl]guanine (PMEG)” (Bioorg Med Chem Lett, 1992):
Converted amounts (≈) assume the structure as drawn.

Experiments:
Type in all cases: functional, cell-based
[1] = system: CCRF-CEM; assay: In vitro antiviral activity expressed as IC50 against HIV (CEM cells); conditions: Homo sapiens
[2] = system: Vero; assay: In vitro antiviral activity expressed as IC50 against herpes simplex virus type 2 (HSV-2) in vero cells; conditions: Chlorocebus sabaeus
[3] = system: CCRF-CEM; assay: In vitro antiviral activity expressed as IC50 against HIV (CEM cells); 11-25; conditions: Homo sapiens

SMILES	IC50 [1] [µg/mL]	IC50 [2] [µg/mL]	IC50 [3] [µg/mL]
Nc1nc(O)c2ncn([C@H]3C=C[C@@H](OCP(=O)(O)O)C3)c2n1	66 (≈ 202 µM)	> 100	
CC(Cn1cnc2c(=O)[nH]c(N)nc21)OCP(=O)(O)O (stereo not drawn)			11 (≈ 36.3 µM)
CC(COCP(=O)(O)O)n1cnc2c(O)nc(N)nc21 (stereo not drawn)	3 (≈ 9.89 µM)		
Nc1nc(O)c2ncn([C@H]3CCC[C@@H]3OCP(=O)(O)O)c2n1	> 100	> 100	
Nc1nc(O)c2ncn([C@H]3CCC[C@H]3OCP(=O)(O)O)c2n1	20 (≈ 60.7 µM)	> 100	
Nc1nc(O)c2ncn([C@@H]3C=C[C@H](OCP(=O)(O)O)C3)c2n1	26 (≈ 79.5 µM)		
Nc1nc2c(ncn2CCOCP(=O)(O)O)c(=O)[nH]1 [GS-438]	0.2 (≈ 0.692 µM)	0.7 (≈ 2.42 µM)	
Nc1nc(O)c2ncn([C@H]3CC[C@@H](OCP(=O)(O)O)C3)c2n1	> 100	> 100	
